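These data come from cells grown in 96-well plates and exposed to compound for 48 hours at five concentrations. At the TGI there is no net growth.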
Tests used:
Assay in all cases: growth of human tumour cells (NCI), 48 h
RPMI-8226 leukemia = test system: RPMI-8226 leukemia
SF-295 CNS = test system: SF-295 CNS
CAKI-1 renal = test system: CAKI-1 renal
MDA-MB-231 breast = test system: MDA-MB-231 breast
LOX IMVI melanoma = test system: LOX IMVI melanoma
SNB-19 CNS = test system: SNB-19 CNS
ACHN renal = test system: ACHN renal
UACC-257 melanoma = test system: UACC-257 melanoma
UO-31 renal = test system: UO-31 renal
K-562 leukemia = test system: K-562 leukemia
SF-539 CNS = test system: SF-539 CNS
MDA-MB-435 = test system: MDA-MB-435
A549 NSCLC = test system: A549 NSCLC
COLO 205 colon = test system: COLO 205 colon
HOP-92 NSCLC = test system: HOP-92 NSCLC
SK-OV-3 ovarian = test system: SK-OV-3 ovarian
T-47D breast = test system: T-47D breast
SR leukemia = test system: SR leukemia
U251 CNS = test system: U251 CNS
SK-MEL-28 melanoma = test system: SK-MEL-28 melanoma
NCI-H460 lung = test system: NCI-H460 lung
M14 melanoma = test system: M14 melanoma
BT-549 breast = test system: BT-549 breast
HOP-62 NSCLC = test system: HOP-62 NSCLC
UACC-62 melanoma = test system: UACC-62 melanoma
OVCAR-5 ovarian = test system: OVCAR-5 ovarian
TK-10 renal = test system: TK-10 renal
DU-145 prostate = test system: DU-145 prostate
MDA-N = test system: MDA-N
SW-620 colon = test system: SW-620 colon
MCF7 breast = test system: MCF7 breast
A498 renal = test system: A498 renal
PC-3 prostate = test system: PC-3 prostate
SN12C renal = test system: SN12C renal
OVCAR-4 ovarian = test system: OVCAR-4 ovarian
SK-MEL-5 melanoma = test system: SK-MEL-5 melanoma
HCC-2998 colon = test system: HCC-2998 colon
OVCAR-3 ovarian = test system: OVCAR-3 ovarian
MOLT-4 leukemia = test system: MOLT-4 leukemia
786-0 renal = test system: 786-0 renal
HCT-116 colon = test system: HCT-116 colon
HCT-15 colon = test system: HCT-15 colon
NCI-H23 lung = test system: NCI-H23 lung
HL-60(TB) leukemia = test system: HL-60(TB) leukemia
SK-MEL-2 melanoma = test system: SK-MEL-2 melanoma
CCRF-CEM leukemia = test system: CCRF-CEM leukemia
EKVX NSCLC = test system: EKVX NSCLC
IGROV1 ovarian = test system: IGROV1 ovarian
NCI/ADR-RES ovarian = test system: NCI/ADR-RES ovarian
NCI-H226 lung = test system: NCI-H226 lung
HS 578T breast = test system: HS 578T breast
SNB-75 CNS = test system: SNB-75 CNS
OVCAR-8 ovarian = test system: OVCAR-8 ovarian
MALME-3M melanoma = test system: MALME-3M melanoma
KM12 colon = test system: KM12 colon
HT29 colon = test system: HT29 colon
SF-268 CNS = test system: SF-268 CNS

Question: Which TGI (RPMI-8226 leukemia) does the source give for `CC1=CC[C@@H]2[C@@H](CC[C@@]2(C)O)C(C)(C)[C@H]1CC[C@@H]1[C@@]2(C)CC[C@@H](O)C(C)(C)O[C@@H]2CC[C@]1(C)O` here?
Answer: 52.3 µM

Question: And the TGI (SF-295 CNS)?
Answer: > 100 µM

Question: And the TGI (CAKI-1 renal)?
Answer: 54.2 µM

Question: What about the TGI (MDA-MB-231 breast) of the same compound?
Answer: 34.5 µM

Question: And the TGI (LOX IMVI melanoma)?
Answer: 29.8 µM

Question: What about the TGI (SNB-19 CNS) of the same compound?
Answer: 46.2 µM

Question: What about the TGI (ACHN renal) of the same compound?
Answer: 58.7 µM

Question: What about the TGI (UACC-257 melanoma) of the same compound?
Answer: 81 µM

Question: And the TGI (UO-31 renal)?
Answer: 34.3 µM

Question: And the TGI (K-562 leukemia)?
Answer: > 100 µM

Question: What about the TGI (SF-539 CNS) of the same compound?
Answer: 44 µM

Question: What about the TGI (MDA-MB-435) of the same compound?
Answer: 57 µM

Question: And the TGI (A549 NSCLC)?
Answer: > 100 µM

Question: And the TGI (COLO 205 colon)?
Answer: 38.1 µM

Question: What about the TGI (HOP-92 NSCLC) of the same compound?
Answer: 37.1 µM

Question: What about the TGI (SK-OV-3 ovarian) of the same compound?
Answer: > 100 µM

Question: What about the TGI (T-47D breast) of the same compound?
Answer: > 100 µM

Question: What about the TGI (SR leukemia) of the same compound?
Answer: 42.8 µM

Question: And the TGI (U251 CNS)?
Answer: 39.8 µM

Question: And the TGI (SK-MEL-28 melanoma)?
Answer: 35.7 µM

Question: And the TGI (NCI-H460 lung)?
Answer: 34.8 µM

Question: And the TGI (M14 melanoma)?
Answer: 61.9 µM

Question: And the TGI (BT-549 breast)?
Answer: 44 µM

Question: What about the TGI (HOP-62 NSCLC) of the same compound?
Answer: 75.4 µM

Question: What about the TGI (UACC-62 melanoma) of the same compound?
Answer: 31.9 µM

Question: And the TGI (OVCAR-5 ovarian)?
Answer: > 100 µM

Question: What about the TGI (TK-10 renal) of the same compound?
Answer: > 100 µM

Question: And the TGI (DU-145 prostate)?
Answer: > 100 µM

Question: And the TGI (MDA-N)?
Answer: 53.2 µM

Question: And the TGI (SW-620 colon)?
Answer: 85.7 µM

Question: And the TGI (MCF7 breast)?
Answer: > 100 µM

Question: What about the TGI (A498 renal) of the same compound?
Answer: 29.3 µM

Question: And the TGI (PC-3 prostate)?
Answer: > 100 µM

Question: What about the TGI (SN12C renal) of the same compound?
Answer: 57.2 µM

Question: What about the TGI (OVCAR-4 ovarian) of the same compound?
Answer: > 100 µM

Question: And the TGI (SK-MEL-5 melanoma)?
Answer: 27.8 µM

Question: What about the TGI (HCC-2998 colon) of the same compound?
Answer: 33.4 µM

Question: And the TGI (OVCAR-3 ovarian)?
Answer: > 100 µM

Question: And the TGI (MOLT-4 leukemia)?
Answer: 47.5 µM

Question: And the TGI (786-0 renal)?
Answer: 34.8 µM

Question: What about the TGI (HCT-116 colon) of the same compound?
Answer: 27 µM

Question: What about the TGI (HCT-15 colon) of the same compound?
Answer: 38 µM

Question: And the TGI (NCI-H23 lung)?
Answer: 76.2 µM

Question: And the TGI (HL-60(TB) leukemia)?
Answer: 40.5 µM

Question: What about the TGI (SK-MEL-2 melanoma) of the same compound?
Answer: > 100 µM

Question: `O=C(CC(C(=O)c1cccs1)c1ccsc1)c1ccc(Cl)cc1` (centres undefined) was tested. Which TGI (RPMI-8226 leukemia) did it give?
Answer: > 100 µM

Question: What about the TGI (SF-295 CNS) of the same compound?
Answer: > 100 µM

Question: What about the TGI (CAKI-1 renal) of the same compound?
Answer: > 100 µM

Question: And the TGI (CCRF-CEM leukemia)?
Answer: > 100 µM

Question: And the TGI (EKVX NSCLC)?
Answer: > 100 µM

Question: What about the TGI (MDA-MB-231 breast) of the same compound?
Answer: > 100 µM

Question: What about the TGI (LOX IMVI melanoma) of the same compound?
Answer: > 100 µM

Question: What about the TGI (SNB-19 CNS) of the same compound?
Answer: > 100 µM

Question: What about the TGI (ACHN renal) of the same compound?
Answer: > 100 µM

Question: What about the TGI (UACC-257 melanoma) of the same compound?
Answer: > 100 µM

Question: What about the TGI (UO-31 renal) of the same compound?
Answer: > 100 µM

Question: What about the TGI (K-562 leukemia) of the same compound?
Answer: > 100 µM

Question: And the TGI (IGROV1 ovarian)?
Answer: > 100 µM

Question: What about the TGI (SF-539 CNS) of the same compound?
Answer: > 100 µM

Question: What about the TGI (MDA-MB-435) of the same compound?
Answer: > 100 µM

Question: And the TGI (A549 NSCLC)?
Answer: > 100 µM

Question: And the TGI (NCI/ADR-RES ovarian)?
Answer: > 100 µM

Question: What about the TGI (COLO 205 colon) of the same compound?
Answer: > 100 µM

Question: What about the TGI (SK-OV-3 ovarian) of the same compound?
Answer: > 100 µM

Question: What about the TGI (NCI-H226 lung) of the same compound?
Answer: > 100 µM

Question: What about the TGI (T-47D breast) of the same compound?
Answer: > 100 µM

Question: And the TGI (SR leukemia)?
Answer: > 100 µM

Question: What about the TGI (HS 578T breast) of the same compound?
Answer: > 100 µM

Question: And the TGI (U251 CNS)?
Answer: > 100 µM

Question: And the TGI (SK-MEL-28 melanoma)?
Answer: > 100 µM

Question: And the TGI (NCI-H460 lung)?
Answer: > 100 µM

Question: What about the TGI (SNB-75 CNS) of the same compound?
Answer: > 100 µM

Question: What about the TGI (M14 melanoma) of the same compound?
Answer: > 100 µM

Question: And the TGI (OVCAR-8 ovarian)?
Answer: > 100 µM

Question: And the TGI (HOP-62 NSCLC)?
Answer: > 100 µM

Question: What about the TGI (UACC-62 melanoma) of the same compound?
Answer: > 100 µM

Question: What about the TGI (OVCAR-5 ovarian) of the same compound?
Answer: > 100 µM

Question: And the TGI (TK-10 renal)?
Answer: > 100 µM

Question: What about the TGI (MALME-3M melanoma) of the same compound?
Answer: > 100 µM

Question: What about the TGI (DU-145 prostate) of the same compound?
Answer: > 100 µM

Question: What about the TGI (KM12 colon) of the same compound?
Answer: > 100 µM

Question: What about the TGI (MDA-N) of the same compound?
Answer: > 100 µM

Question: And the TGI (SW-620 colon)?
Answer: > 100 µM

Question: And the TGI (HT29 colon)?
Answer: > 100 µM

Question: And the TGI (MCF7 breast)?
Answer: > 100 µM

Question: And the TGI (A498 renal)?
Answer: > 100 µM

Question: What about the TGI (PC-3 prostate) of the same compound?
Answer: > 100 µM

Question: What about the TGI (SN12C renal) of the same compound?
Answer: > 100 µM

Question: And the TGI (OVCAR-4 ovarian)?
Answer: > 100 µM

Question: What about the TGI (SK-MEL-5 melanoma) of the same compound?
Answer: > 100 µM

Question: And the TGI (SF-268 CNS)?
Answer: > 100 µM

Question: And the TGI (HCC-2998 colon)?
Answer: > 100 µM

Question: And the TGI (MOLT-4 leukemia)?
Answer: > 100 µM

Question: And the TGI (786-0 renal)?
Answer: > 100 µM

Question: What about the TGI (HCT-116 colon) of the same compound?
Answer: > 100 µM

Question: And the TGI (HCT-15 colon)?
Answer: > 100 µM

Question: And the TGI (NCI-H23 lung)?
Answer: > 100 µM

Question: And the TGI (HL-60(TB) leukemia)?
Answer: > 100 µM

Question: And the TGI (SK-MEL-2 melanoma)?
Answer: > 100 µM
